In patent publication US5871946A, “Method for determining activity of enzymes in metabolically active whole cells” (priority 1995, dated 1999):
“And” between values parts separate entries of the source, which are not always exact repeats. Equal entries are not always repeated. Numbered stars: 1 amine (or outer) side, 2 acyl side, 3 side chain; on linkers, the order of the positions; unused ones are H or OH. Bridge positions count the residues as written; N and C are the ends. Peptide text beside a SMILES is read from it. I, II: the chains in the order shown. Rhodamine110 = O=C1OC2(c3ccc(N[*:1])cc3Oc3cc(N[*:2])ccc32)c2ccccc21

Columns and labels:
[1] = Modulators of sensitivity of rhodamine 110 substrates; format: cell-based; details: 1 mM
Text: Modulators are components used to […] the sensitivity of the enzyme for the leaving group. The modulators speed up or slow down the activity of an enzyme by changing the active site. […] Preferred modulators for particular enzymes are included in Table 1.

[2] = system: MONOCYTES; assay: Disease to normal ratio of enzyme activity, monocytes (Table 5); format: cell-based, human
Text: (§1) A normal in house adult donor pool was drawn, recording sex and determining that no known disease state was present at the time of sample draw. Criteria for rejecting samples included patients under medication, patients with infection or inflammation of any type, colds and flu as well as any known medical illness such as cancer, heart ailment and high blood pressure. A donor list of 75 patients has been developed and a mean and 2 sd range established. A subgroup of "super normals" was developed from this list by examining the 75 patients to determine which group falls closest to the mean for all enzymes in all cell types tested. These patients were used as the "wellness index" or best group of "normalcy" patients. If a study required the use of children or newborns then this same format was used to develop a data base for these age groups.

[3] = system: LYMPHOCYTES; assay: Disease to normal ratio of enzyme activity, lymphocytes (Table 5); format: cell-based, human
Text: as §1

[4] = system: amino peptidase; assay: Aminopeptidase activity in acute lympholytic Ficoll prepared lymphocytes; format: cell-based; details: FIG. 4B
Text: The cell's ability to fight off an invader lies within its genetics and therefore cell type. The "readiness" however of any genetically capable group of cells to defend is different. A measure of this "readiness" is manifest in the available proteolytic enzymes contained within vacuoles or on the surface of the cell. The assay compound hydrolysis rate increases with increased mass of enzymes giving a picture of immune competence both in number of cells and activity level. […] Images were generated using Universal Imaging.

[5] = system: cells of normals and HIV + patients; assay: Substrate panel in cells of normals and HIV+ patients, possible TB infection (Table 4); format: cell-based, human
Experimental: A panel of assay compounds are assembled consisting of Ala-aminopeptidase and Lys-aminopeptidase, Dipeptidyl peptidase IV (Ala-Ala)2 rhodamine 110 and Cathepsin D to indicate possible TB infection in AIDS related cases.
A panel of enzymatic substrates is performed consisting of Ala-aminopeptidase and Lys-aminopeptidase, Dipeptidyl peptidase IV (Ala-Ala)2 rhodamine 110 and Cathepsin D to indicate possible TB infection in AIDS related cases.

[6] = Effect of sodium chloride on dipeptide reagent; format: cell-based; details: 7 mM, pH range 6.5 to 8.7
Text: Inhibitors and poisons (or toxins) are components that can be added to reduce the activity of non-targeted enzymes that provide competing reactions for the leaving group. Inhibitors are usually very selective for a particular enzyme. For example, EDTA only works with enzymes requiring Ca^+2, Mg^+2 and some other metals. […] Preferred inhibitors for particular enzymes are included in Table 1.

[7] = Inflam. Bowel Dis., monocytes section

SMILES: O[C@H](CS)[C@@H](O)CS [dithioerythritol (DTE), dithioerythritol]
- effect on sensitivity of the leaving group for the enzyme ([1]; Ala-Gly and Leu-Gly substrates): does not change the sensitivity
- effect on sensitivity of substituted rhodamine 110 substrates ([1]; Pro, Gly, Gln-Ser, Val-Lys-Val-Lys, Ala-Ala, Ala-Ala-Ala-Ala substrates): decreases the sensitivity

SMILES: CC(C)C[C@H](N)C(=O)Nc1ccc2c(c1)Oc1cc(NC(=O)[C@@H](N)CC(C)C)ccc1C21OC(=O)c2ccccc21 [LEU, (Leu)2 Rho 110]
- Ratio of disease to normal ([2]; Dermatomyositis, monocytes): 1.35
- Ratio of disease to normal [2, 7]: 1.13
- Ratio of disease to normal ([2]; JRA, monocytes): 1.44
- Ratio of disease to normal ([2]; Lupus, monocytes): 44.44
- Ratio of disease to normal ([3]; Dermatomyositis): 1.36
- Ratio of disease to normal ([3]; Inflam. Bowel Dis.): 1.34
- Ratio of disease to normal ([3]; Lupus): 1.93
- Ratio of disease to normal ([3]; Rheumatic Fever): 1.05
- enzymatic activity [4]: lost their enzymatic activity

SMILES: C[C@H](N)C(=O)NCC(=O)Nc1ccc2c(c1)Oc1cc(NC(=O)CNC(=O)[C@H](C)N)ccc1C21OC(=O)c2ccccc21 [ALA--GLY****]
- MEAN DELTA FL ([5]; HIV + PATIENTS): 39.9
- MEAN DELTA FL ([5]; HIV + PATIENTS, listed as ALA--GLY*): 29.7
- MEAN DELTA FL ([5]; NORMALS): 48.0
- MEAN DELTA FL ([5]; NORMALS, listed as ALA--GLY*): 31.6

SMILES: [Cl-].[Na+] [sodium chloride]
- inhibitory effect on dipeptide reagent [6]: slightly inhibitory effect

SMILES: C[C@H](NC(=O)[C@@H](N)CCCCN)C(=O)Nc1ccc2c(c1)Oc1cc(NC(=O)[C@H](C)NC(=O)[C@@H](N)CCCCN)ccc1C21OC(=O)c2ccccc21 [LYS--ALA^2]
- MEAN DELTA FL ([5]; HIV + PATIENTS): 7.9
- MEAN DELTA FL ([5]; HIV + PATIENTS, listed as LYS--ALA^1): 121.5
- MEAN DELTA FL ([5]; NORMALS): 7.6
- MEAN DELTA FL ([5]; NORMALS, listed as LYS--ALA^1): 112.6

SMILES: NC(=O)CC[C@H](N)C(=O)N[C@@H](CO)C(=O)Nc1ccc2c(c1)Oc1cc(NC(=O)[C@H](CO)NC(=O)[C@@H](N)CCC(N)=O)ccc1C21OC(=O)c2ccccc21 (relative stereo) [GLN--SER*]
- MEAN DELTA FL ([5]; HIV + PATIENTS): 13.7 and 12.7
- MEAN DELTA FL ([5]; NORMALS): 11.9 and 6.1

SMILES: C[C@H](NC(=O)CNC(=O)[C@H](Cc1ccccc1)NC(=O)CN)C(=O)Nc1ccc2c(c1)Oc1cc(NC(=O)[C@H](C)NC(=O)CNC(=O)[C@H](Cc3ccccc3)NC(=O)CN)ccc1C21OC(=O)c2ccccc21 [GFGA, (Gly-Phe-Gly-Ala)2 Rho 110] (I: H-GFGA / II: H-GFGA; linker I:C-II:C via Rhodamine110)
- Ratio of disease to normal ([2]; Dermatomyositis, monocytes): 2.01
- Ratio of disease to normal [2, 7]: 3.42
- Ratio of disease to normal ([2]; JRA, monocytes): 2.29
- Ratio of disease to normal ([2]; Kawasaki's, monocytes): 1.77
- Ratio of disease to normal ([2]; Lupus, monocytes): 2.18
- Ratio of disease to normal ([2]; Rheumatic Fever, monocytes): 1.36
- Ratio of disease to normal ([3]; Dermatomyositis): 2.14
- Ratio of disease to normal ([3]; Inflam. Bowel Dis.): 2.16
- Ratio of disease to normal ([3]; JRA): 2.03
- Ratio of disease to normal ([3]; Kawasaki's): 2.15
- Ratio of disease to normal ([3]; Lupus): 1.25
- Ratio of disease to normal ([3]; Rheumatic Fever): 2.14
